According to patent publication US9504728B2, “Dosage form” (priority 2011, dated 2016):
Like-named read-outs stand apart in the source and are kept apart here.

Columns and labels:
in vivo = settings: CD1 mice; for AUC(0-t) / bioavailability: male, mouse; for bioavailability: read-out: Oral bioavailability F %
Method: For sanglifehrins, whole blood is analysed. Compounds are formulated in 5% ethanol/5% cremophor EL/90% saline for both p.o. and i.v. administration. Groups of 3 male CD1 mice are dosed with either 1 mg/kg i.v. or 5 or 10 mg/kg p.o. Blood samples (40 μL) are taken via saphenous vein, pre-dose and at 0.25, 0.5, 2, 8, and 24 hours, and diluted with an equal amount of dH20 and put on dry ice immediately. Samples are stored at −70° C. until analysis. The concentration of the sanglifehrin or parent compound in the sample is determined via LCMS as follows: 20 μL of blood:H2O (1:1, v/v)/PK sample is added with 20 μL Internal standard (hydroxyl macrocycle, 6) at 100 ng/mL, 20 μL working solution/MeOH and 150 μL of ACN, vortexed for 1 minute at 1500 rpm, and centrifuged at 12000 rpm for 5 min. The supernatant is then injected into LC-MS/MS. The time-course of blood concentrations is plotted and used to derive area under the whole blood concentration-time curve (AUC—which is directly proportional to the total amount of unchanged drug that reaches the systemic circulation). These values are used to generate PK parameters where possible.
To assess the pharmacokinetics of the compounds in an in vivo setting, compounds were dosed po at 10 or 5 mg/kg and iv at 1 mg/kg to groups of CD1 mice.
Pharmacokinetic analysis was carried out as described in the general methods.

physchem = settings: for PBS % remaining after 1 hour: phosphate buffered saline pH 7.3, 37° C.; for SGF % remaining after 1 hour: simulated gastric fluid pH 1.2, 37° C.
Method: 1 mM DMSO solutions were made of compounds to be tested and mixed on vibrax to ensure compound was fully dissolved.
PBS Solution: 2 tablets of Phosphate Buffered Saline (Dulbecco A) tablets (Oxoid, BR0014G) were added to 200 mL distilled water and stirred to mix. pH was measured at 7.28.
Simulated Gut Fluid (SGF): 300 uL conc. HCl added to 50 mL distilled water and mixed. pH was measured at 1.21.
Simulated gut fluid+pepsin: 300 uL conc. HCl and 1 g of Pepsin (from Porcine gastric mucosa, Sigma) were added to 50 mL distilled water and mixed by stirring for 1 hr.
SGF+denatured pepsin: 900 uL of Acidic Enzyme Solution taken into a 2 mL eppendorf tube and heated at 99° C. in a water bath for 30 mins.
Acidic Enzyme and Acidic Denatured Enzyme solutions were made fresh each day, whereas PBS and Acid Solutions were stored at 4° C. when not in use.
Eppendorfs containing 900 uL of test solutions were pre-warmed in a 37° C. water bath. At t=0, 100 uL of test compound (1 mM DMSO solution) was added to test solution and mixed. 100 uL was taken immediately and mixed into 900 uL acetonitrile in an amber glass LC vial. 50-100 uL of the sample was analysed by HPLC, integrating the compounds' UV peaks to determine degradation over time. Sanglifehrin A was measured at its λmax of 240 nm; 33, 45 and 24 were measured at their λmax of 276 nm.
Further samples were taken in the same manner for analysis at approximately t=0.33, 0.67, 1.0, 2.67, and 4.67 hr. A final analysis was run at t=>30 to confirm end point of reaction.
Controls of test compound DMSO solutions in 900 uL DMSO were also prepared and treated in the same manner, with samples analysed at t=0, t=8 and t=>30 hr. Half lives were calculated from the data generated.
Stability of compounds was analysed in simulated gastric fluid, pH1.2 (SGF) and phosphate buffered saline, pH7.3 (PBS).

cyclophilin A (CypA) = cyclophilin A (CypA) (Homo sapiens, UniProt P62937); settings: cited from earlier work
calcineurin = settings: in words; Zenke et al. 2001; cited from earlier work
[1] = iv, whole blood, 1 mg/kg i.v., read-out: AUClast after 1 mg/kg i.v. dose
[2] = po, whole blood, 10 mg/kg p.o., read-out: AUClast after 10 mg/kg p.o. dose
[3] = whole blood, po, p.o. 10 or 5 mg/kg vs i.v. 1 mg/kg
[4] = in vivo, iv, whole blood, 1 mg/kg i.v., read-out: AUClast after 1 mg/kg i.v. dose
[5] = in vivo, po, p.o. 10 or 5 mg/kg vs i.v. 1 mg/kg
[6] = in vivo, po, whole blood, 10 mg/kg p.o., read-out: AUClast after 10 mg/kg p.o. dose

cyclophilin A (CypA), sequence (P62937 whole entry): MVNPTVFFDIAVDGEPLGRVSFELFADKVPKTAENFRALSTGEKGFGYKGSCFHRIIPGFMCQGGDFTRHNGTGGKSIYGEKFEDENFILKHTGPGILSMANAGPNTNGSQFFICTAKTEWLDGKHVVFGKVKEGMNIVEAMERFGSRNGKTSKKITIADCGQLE

| SMILES | AUC(0-t) (in vivo; [1]) [ng·h/mL] | AUC(0-t) (in vivo; [2]) [ng·h/mL] | bioavailability (in vivo; [3]) [%] | further results |
| --- | --- | --- | --- | --- |
| CC(=O)CC[C@H]1C(=O)N[C@@H](C(C)C)C(=O)N[C@@H](Cc2cccc(O)c2)C(=O)N2CCCC(N2)C(=O)O[C@H](/C(C)=C/C=C/C(=O)Nc2ccc(-c3ccccc3)cc2)C/C=C/C=C/[C@H](O)[C@H](C)[C@H]1O (some centres unmarked) [Compound 44] | 2500 | – | 0 | – |
| CC(=O)CC[C@H]1C(=O)N[C@@H](C(C)C)C(=O)N[C@@H](Cc2cccc(O)c2)C(=O)N2CCCC(N2)C(=O)O[C@H](/C(C)=C/C=C/C(=O)Nc2ccccn2)C/C=C/C=C/[C@H](O)[C@H](C)[C@H]1O (some centres unmarked) [Compound 42] | – | – | – | AUC(0-t) (in vivo; [4]): 11700 ng·h/mL; bioavailability (in vivo; [5]): 0.7%; AUC(0-t) (in vivo; [6]): 919 ng·h/mL |
| CC(=O)CC[C@H]1C(=O)N[C@@H](C(C)C)C(=O)N[C@@H](Cc2cccc(O)c2)C(=O)N2CCC[C@H](N2)C(=O)O[C@H](/C(C)=C/CO)C/C=C/C=C/[C@H](O)[C@H](C)[C@H]1O [hydroxymacrocycle, 6, hydroxymacrocycle] | – | – | – | affinity for CyPA (cyclophilin A (CypA); in words, Sedrani et al., 2003): strong affinity |
| CC(=O)CC[C@H]1C(=O)N[C@@H](C(C)C)C(=O)N[C@@H](Cc2cc(O)cc(F)c2)C(=O)N2CCCC(N2)C(=O)O[C@H](/C(C)=C/C=C/C(=O)N2CCCCO2)C/C=C/C=C/[C@H](O)[C@H](C)[C@H]1O (some centres unmarked) [Compound 24] | 45500 | – | 3.6 | SGF + denatured pepsin, % remaining after 1 hour (physchem; 37° C., 1 hour): 30%; SGF + Pepsin, % remaining after 1 hour (physchem; SGF + pepsin, 37° C., 1 hour): 23%; half-life at 100 µM (physchem; phosphate buffered saline (PBS), pH 7.3): > 1440 min; PBS % remaining after 1 hour (physchem; 1 hour): 100%; half-life at 100 µM (physchem; simulated gastric fluid (SGF), pH 1.2): < 19.8 min; SGF % remaining after 1 hour (physchem; 1 hour): 18% |
| CC(=O)CC[C@H]1C(=O)N[C@@H](C(C)C)C(=O)N[C@@H](Cc2cccc(O)c2)C(=O)N2CCCC(N2)C(=O)O[C@H](/C(C)=C/C=C/C(=O)N2CCCCO2)C/C=C/C=C/[C@H](O)[C@H](C)[C@H]1O (some centres unmarked) [Compound 45] | – | – | – | SGF + denatured pepsin, % remaining after 1 hour (physchem; 37° C., 1 hour): 15%; SGF + Pepsin, % remaining after 1 hour (physchem; SGF + pepsin, 37° C., 1 hour): 17%; half-life at 100 µM (physchem; buffer, pH 7.3): > 1440 min; PBS % remaining after 1 hour (physchem; 1 hour): 100%; SGF % remaining after 1 hour (physchem; 1 hour): 13%; half-life at 100 µM (physchem; simulated gi fluid, pH 1.2): < 19.8 min; AUC(0-t) (in vivo; [4]): 15100 ng·h/mL; bioavailability (in vivo; [5]): 3.2%; AUC(0-t) (in vivo; [6]): 4840 ng·h/mL |
| CCN(CC)C(=O)/C=C/C=C(\C)[C@@H]1C/C=C/C=C/[C@H](O)[C@H](C)[C@@H](O)[C@@H](CCC(C)=O)C(=O)N[C@@H](C(C)C)C(=O)N[C@@H](Cc2cccc(O)c2)C(=O)N2CCCC(N2)C(=O)O1 (some centres unmarked) [Compound 34] | 14000 | 800 | 0.1 | – |
| CNC(=O)/C=C/C=C(\C)[C@@H]1C/C=C/C=C/[C@H](O)[C@H](C)[C@@H](O)[C@@H](CCC(C)=O)C(=O)N[C@@H](C(C)C)C(=O)N[C@@H](Cc2cccc(OC)c2)C(=O)N2CCCC(N2)C(=O)O1 (some centres unmarked) [Compound 37] | 1220 | 4.76 | 0.04 | – |
| CON(C)C(=O)/C=C/C=C(\C)[C@@H]1C/C=C/C=C/[C@H](O)[C@H](C)[C@@H](O)[C@@H](CCC(C)=O)C(=O)N[C@@H](C(C)C)C(=O)N[C@@H](Cc2cc(O)cc(F)c2)C(=O)N2CCCC(N2)C(=O)O1 (some centres unmarked) [Compound 23] | 22900 | – | 2.4 | – |
| C/C(=C\CO)[C@@H]1C/C=C/C=C/[C@@H]2OC3(C)CC[C@@H](C(=O)N[C@@H](C(C)C)C(=O)N[C@@H](Cc4cccc(O)c4)C(=O)N4CCCC(N4)C(=O)O1)[C@H](O3)[C@H]2C [Compound 35] | 813 | 11.3 | 0.1 | – |
| CC[C@H]1C[C@H](C)[C@@]2(NC1=O)O[C@@H](C[C@H](O)[C@@H](C)CC/C=C/C=C(\C)[C@@H]1C/C=C/C=C/[C@H](O)[C@H](C)[C@@H](O)[C@@H](CCC(C)=O)C(=O)N[C@@H](C(C)C)C(=O)N[C@@H](Cc3cccc(O)c3)C(=O)N3CCC[C@H](N3)C(=O)O1)[C@H](C)[C@H](O)[C@@H]2C [Sanglifehrin A, 5, Sanglifehrin A, reference compound] | – | – | – | SGF + denatured pepsin, % remaining after 1 hour (physchem; 37° C., 1 hour): 49%; SGF + Pepsin, % remaining after 1 hour (physchem; SGF + pepsin, 37° C., 1 hour): 41%; PBS % remaining after 1 hour (physchem; 1 hour): 76%; SGF % remaining after 1 hour (physchem; 1 hour): 52%; inhibition of the phosphatase activity of calcineurin (calcineurin): does not inhibit; affinity for CyPA compared to Cyclosporine A (fold higher) (cyclophilin A (CypA); relative to CsA): approximately 20 fold; Oral bioavailability F % (in vivo; p.o. 10 or 5 mg/kg vs i.v. 1 mg/kg): 1.4% |

Now from value to molecule, other results behind:

| AUC(0-t) (in vivo; [1]) [ng·h/mL] | AUC(0-t) (in vivo; [2]) [ng·h/mL] | bioavailability (in vivo; [3]) [%] | SMILES | further results |
| --- | --- | --- | --- | --- |
| 4910 | 3880 | 7.8 | CC(=O)CC[C@H]1C(=O)N[C@@H](C(C)C)C(=O)N[C@@H](Cc2cccc(O)c2)C(=O)N2CCCC(N2)C(=O)O[C@H](/C(C)=C/C=C/C(=O)OC(C)(C)C)C/C=C/C=C/[C@H](O)[C@H](C)[C@H]1O (some centres unmarked) [Compound 40] | – |
| 14300 | 2200 | 1.6 | CON(C)C(=O)/C=C/C=C(\C)[C@@H]1C/C=C/C=C/[C@H](O)[C@H](C)[C@@H](O)[C@@H](CCC(C)=O)C(=O)N[C@@H](C(C)C)C(=O)N[C@@H](Cc2cccc(O)c2)C(=O)N2CCCC(N2)C(=O)O1 (some centres unmarked) [Compound 33] | half-life at 100 µM (physchem; buffer, pH 7.3): > 1440 min; SGF + Pepsin, % remaining after 1 hour (physchem; pig, simulated gi fluid, 1 h, 100 µM): 25%; half-life at 100 µM (physchem; simulated gi fluid, pH 1.2): 39.6 min |
| 5500 | – | 1.5 | CON(C)C(=O)/C=C/C=C(\C)[C@@H]1C/C=C/C=C/C=C(\C)[C@@H](O)[C@@H](CCC(C)=O)C(=O)N[C@@H](C(C)C)C(=O)N[C@@H](Cc2cc(O)cc(F)c2)C(=O)N2CCCC(N2)C(=O)O1 (some centres unmarked) [Compound 26] | AUC(0-t) (in vivo; po, whole blood, 5 mg/kg p.o., read-out: AUClast after 5 mg/kg p.o. dose): 421 ng·h/mL |
| 9800 | 8980 | 9.2 | CC(=O)CC[C@H]1C(=O)N[C@@H](C(C)C)C(=O)N[C@@H](Cc2cccc(O)c2)C(=O)N2CCCC(N2)C(=O)O[C@H](/C(C)=C/C=C/C(=O)N2CCOCC2)C/C=C/C=C/[C@H](O)[C@H](C)[C@H]1O (some centres unmarked) [Compound 43] | – |
| 1660 | 111 | 0.9 | CCCC(=O)/C=C/C=C(\C)[C@@H]1C/C=C/C=C/[C@H](O)[C@H](C)[C@@H](O)[C@@H](CCC(C)=O)C(=O)N[C@@H](C(C)C)C(=O)N[C@@H](Cc2cccc(O)c2)C(=O)N2CCCC(N2)C(=O)O1 (some centres unmarked) [Compound 39] | – |
| 5790 | 3090 | 5.5 | CCOC(=O)/C=C/C=C(\C)[C@@H]1C/C=C/C=C/[C@H](O)[C@H](C)[C@@H](O)[C@@H](CCC(C)=O)C(=O)N[C@@H](C(C)C)C(=O)N[C@@H](Cc2cccc(O)c2)C(=O)N2CCCC(N2)C(=O)O1 (some centres unmarked) [Compound 38] | – |
| 1940 | 453 | 2.4 | CC(=O)CC[C@H]1C(=O)N[C@@H](C(C)C)C(=O)N[C@@H](Cc2cccc(O)c2)C(=O)N2CCCC(N2)C(=O)O[C@H](/C(C)=C/C=C/C(=O)N(CC(C)C)CC(C)C)C/C=C/C=C/[C@H](O)[C@H](C)[C@H]1O (some centres unmarked) [Compound 41] | – |
| 4920 | 17.8 | 0.04 | CNC(=O)/C=C/C=C(\C)[C@@H]1C/C=C/C=C/[C@H](O)[C@H](C)[C@@H](O)[C@@H](CCC(C)=O)C(=O)N[C@@H](C(C)C)C(=O)N[C@@H](Cc2cccc(O)c2)C(=O)N2CCCC(N2)C(=O)O1 (some centres unmarked) [Compound 36] | – |
